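Compound exposure: 48 hours, 5 concentrations, 96-well plates. The concentration for 50% growth inhibition is given as GI50. The concentration for full growth arrest is given as TGI.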

What all share (assay): NCI tumour cell line growth inhibition, 48 h
Assay [1] has as its system OVCAR-5 ovarian.
Assay [2] concerns A498 renal.
The subject of assay [3] is OVCAR-3 ovarian.
For assay [4], the system named is HOP-62 NSCLC.
Assay [5] concerns MALME-3M melanoma.
Assay [6] relates to HCC-2998 colon.
Assay [7] concerns MDA-MB-231 breast.
The subject of assay [8] is CCRF-CEM leukemia.
Assay [9] relates to HCT-116 colon.
The test system of assay [10] is SNB-19 CNS.

For `O=c1[nH]c(-c2ccncc2)nc2sc3c(c12)CCCCCC3`, the GI50 in assay [1], in assay [2], in [3], in assay [4], in [5] and in [6] was above 100 µM throughout. Moreover, the GI50 in assay [7] and in assay [8] was above 100 µM in each case. Moreover, the TGI in assay [1], in assay [2], in [3], in [4], in assay [5] and in assay [6] was above 100 µM in each case. Further, the TGI in assay [7] and in assay [8] was above 100 µM each time.

As for `C/C(=N\NC(N)=O)C(CN1CCOCC1)C(c1ccccc1)c1c(O)c2ccccc2oc1=O` (stereo not given), the TGI in [1] is above 100 µM; in assay [2], 91.8 µM; in assay [9], above 100 µM; in assay [3], above 100 µM; in assay [5], above 100 µM; in [6] it was above 100 µM. For the same molecule, the TGI in assay [10], in [7] and in assay [8] was above 100 µM each time.

`COc1ccc2c(c1)OCC1c3cc(OC)ccc3OC21` (stereo not given): the GI50 in assay [1] was 80.1 µM; in assay [2], 63.1 µM; in [9], 47.5 µM; in assay [3], 44.2 µM; in assay [4] it was 95 µM; in [5], above 100 µM. Besides, the GI50 was 5.42 µM in assay [6], above 100 µM in assay [10] and 46.4 µM in assay [7]. Besides, the TGI in assay [1], in [2], in assay [9], in assay [3], in assay [4] and in assay [5] was above 100 µM in each case. Also, the TGI was 58 µM in assay [6], above 100 µM in assay [10] and above 100 µM in assay [7].

Take `Nc1ncnc2c1ncn2C1SC(CO)C(O)C1O` (stereo not given): the GI50 in assay [1] was above 100 µM; in assay [9], 13.5 µM; in [3], 24.5 µM; in assay [4], 24.9 µM; in [6], 11.9 µM; in [10], 26 µM. Also, the GI50 in assay [7] was 10.9 µM; in assay [8], above 100 µM. Also, the TGI in assay [1] is above 100 µM; in [9], 50.3 µM; in assay [3], 58.3 µM; in assay [4] it was 91.2 µM; in assay [6], 34.5 µM; in assay [10], 82.8 µM. In addition, the TGI was 34.8 µM in [7] and above 100 µM in assay [8].

As for `CC1(C)CCC(c2ccc(Cl)cc2)=C(CN2CCN(c3ccc(C(=O)NS(=O)(=O)c4ccc(N[C@H](CCN5CCOCC5)CSc5ccccc5)c(S(=O)(=O)C(F)(F)F)c4)cc3)CC2)C1`, the GI50 in assay [1] was 1.85 µM; in [2] it was 0.0191 µM; in assay [9], 1.69 µM; in assay [3], 1.62 µM; in [4] it was 1.73 µM; in assay [6], 0.343 µM. For the same molecule, the results for the GI50 in assay [10], in assay [7] and in assay [8] were 2.68 µM, 0.642 µM and 0.0618 µM, respectively. The TGI worked out at 4.05 µM in [1]; 0.115 µM in assay [2]; 3.11 µM in assay [9]; 3 µM in [3]; 3.26 µM in [4]; 1.67 µM in assay [6]. Besides, the TGI in assay [10] turned out to be 9.14 µM; in [7] it was 2.17 µM; in assay [8] it was 7.43 µM.

Take `Cc1nn(-c2ccccc2)c2c1[C@@H](C)[C@H]1CC3(CC4(C)C[C@@H]3C1(C)c1c(C)nn(-c3ccccc3)c1N4C)N2C` (stereo not given in full): the GI50 in assay [1] is above 100 µM; in [2], above 100 µM; in assay [4] it was 18.3 µM; in assay [5], above 100 µM; in [6], above 100 µM; in [10], above 100 µM. Besides, the GI50 in [7] was above 100 µM. For the same molecule, the TGI in [1], in assay [2], in [4], in assay [5], in assay [6] and in [10] was above 100 µM throughout. Also, the TGI in [7] is above 100 µM.

Regarding `O=C(/C=C/c1c[nH]c2ccccc12)c1ccccc1O`, the TGI in [1] is 28.8 µM; in assay [2] it was 28.5 µM; in [9] it was 26 µM; in assay [3], 20.3 µM; in [4], 28.1 µM; in assay [5], 29.3 µM. The TGI worked out at 27.1 µM in assay [6], 36.7 µM in assay [10] and 18.4 µM in assay [7].

For the origin of these results see PubChem BioAssay (NCI).
